# Data reported in patent US6951843B2, “Peptide derivatives and their pharmaceutically acceptable salts, thereof, processes for preparation of both and use thereof” (priority 2000, dated 2005).
# Read-outs that look alike come from different tables or passages of the source.
# Key:
# Arg-gingipain (RGP) = experiment: Inhibitory activity against Arg-gingipain (RGP), substrate Z-Phe-Arg-MCA, for comparison; type: biochemical, Porphyromonas gingivalis; conditions: compound concentration 10^−6 mol/l
# Description: Enzyme inhibitory activity (%)=[1−(F/F0)]×100
# The inhibitory activity against Arg-gingipain (hereinafter referred to as “RGP”) was measured for comparison in a manner similar to the above, by the process described in Journal Biological Chemistry, Vol. 269, 21371-21378 (1994) using Z-Phe-Arg-MCA as a substrate.
# Lys-gingipain (KGP) = Lys-gingipain (KGP) (Porphyromonas gingivalis, UniProt B2RLK2)
# Description: Measurement of Inhibitory Activity Against KGP
# The inhibitory activity against Lys-gingipain (KGP) was measured by the method described in Journal Biochemistry, Vol. 123, 305-312 (1998), using Z-His-Glu-Lys-MCA as a substrate. Specifically, the measurement was carried out in the following manner: 100 μl of 50 mM L-cystein, 200 μl of a 0.1 M sodium phosphate buffer solution (pH 7.5), 20 μl of 12.3 nM KGP solution containing 0.05% “Brij35” (a tradename of Aldrich, polyoxyethylene(23) lauryl ether), 80 μl of distilled water and 100 μl of a dimethyl sulfoxide solution of a compound according to the invention were mixed together, and preincubated at 37° C. for 5 minutes. Thereafter, 500 μl of a 0.1% dimethyl sulfoxide solution containing 20 μM Z-His-Glu-Lys-MCA was added, followed by incubation at 40° C. for 10 minutes. Then, an acetic acid buffer solution (pH 5.0) containing 10 mM iodoacetamide was added to stop the enzyme reaction, and the fluorescence intensity (F) at 460 nm excited at 380 nm was measured. […] The enzyme inhibitory activity (%) was calculated by the following equation. Enzyme inhibitory activity (%)=[1−(F/F0)]×100
# [1] = compound concentration 10^−6 mol/l
# [2] = compound concentration 10^−9 mol/l
Compound,melting point [°C],Enzyme inhibitory activity (%) RGP (Arg-gingipain (RGP)) [%],Enzyme inhibitory activity (%) KGP (Lys-gingipain (KGP); [1]) [%],Enzyme inhibitory activity (%) KGP (Lys-gingipain (KGP); [2]) [%]
CCCNC(=O)C(O)[C@H](CCCCNC(=O)OC(C)(C)C)NC(=O)[C@H](CCC(=O)OC(C)(C)C)NC(=O)OCc1ccccc1 (stereo partly drawn),73 to 75,,,
CN(C)NC(=O)CC[C@H](NC(=O)OCc1ccccc1)C(=O)N[C@@H](CCCCNC(=O)OC(C)(C)C)C(O)C(=O)NCc1ccccc1 (stereo partly drawn),123 to 125,,,
CC(C)(C)OC(=O)CC[C@H](NC(=O)OCc1ccccc1)C(=O)N[C@@H](CCCCNC(=O)OC(C)(C)C)C(O)C(=O)NCCc1ccccc1 (stereo partly drawn),82 to 85,,,
CC(C)C[C@H](NC(=O)C(=O)[C@H](CCCCN)NC(=O)[C@H](CCC(=O)O)NC(=O)OCc1ccccc1)C(=O)N(C)C.Cl [Example 35],,3.7,99.9,50.6
CCCNC(=O)C(=O)[C@H](CCCCN)NC(=O)[C@H](CCC(=O)O)NC(=O)OCc1ccccc1.Cl [Example 39],,0.0,99.6,71.9
CC(C)(C)OC(=O)CC[C@H](NC(=O)OCc1ccccc1)C(=O)N[C@@H](CCCCNC(=O)OC(C)(C)C)C(=O)C(=O)NCc1ccccc1,130 to 132,,,
Cl.Cl.NCCCC[C@H](NC(=O)[C@H](CCC(=O)NCCN)NC(=O)OCc1ccccc1)C(=O)C(=O)NCc1ccccc1 [Example 46],,0.5,99.9,99.9
CC(C)(C)OC(=O)NCCCC[C@H](NC(=O)[C@H](CCC(N)=O)NC(=O)OCc1ccccc1)C(O)C(=O)NCc1ccccc1 (stereo partly drawn),138 to 141,,,
Cl.Cl.NCCCC[C@H](NC(=O)[C@H](CCC(=O)N1CCNCC1)NC(=O)OCc1ccccc1)C(=O)C(=O)NCc1ccccc1 [Example 47],,6.4,100.0,98.5
CN(C)C(=O)[C@H](CC(N)=O)NC(=O)C(=O)[C@H](CCCCN)NC(=O)[C@H](CCC(=O)O)NC(=O)OCc1ccccc1.Cl [Example 37],,8.5,99.9,59.6
CNC(=O)CC[C@H](NC(=O)OCc1ccccc1)C(=O)N[C@@H](CCCCN)C(=O)C(=O)NCc1ccccc1.Cl [Example 44],,1.9,100.0,97.3
CN(NC(=O)CC[C@H](NC(=O)OCc1ccccc1)C(=O)N[C@@H](CCCCN)C(=O)C(=O)NCc1ccccc1)c1ccccc1.Cl.Cl [Example 49],,0.0,100.0,99.0
CCCNC(=O)C(=O)[C@H](CCCCNC(=O)OC(C)(C)C)NC(=O)[C@H](CCC(=O)OC(C)(C)C)NC(=O)OCc1ccccc1,131 to 133,,,
Cl.NCCCC[C@H](NC(=O)[C@H](CCC(=O)O)NC(=O)OCc1ccccc1)C(=O)C(=O)NCc1ccccc1 [Example 41],,4.0,99.7,81.8
CC(C)(C)OC(=O)NCCCC[C@H](NC(=O)[C@H](CCC(=O)NCCNC(=O)OC(C)(C)C)NC(=O)OCc1ccccc1)C(O)C(=O)NCc1ccccc1 (stereo partly drawn),170 to 172,,,
CC(C)(C)OC(=O)CC[C@H](NC(=O)OCc1ccccc1)C(=O)N[C@@H](CCCCNC(=O)OC(C)(C)C)C(=O)C(=O)NCCc1ccccc1,148 to 150,,,
CC(C)C[C@H](NC(=O)C(=O)[C@H](CCCCNC(=O)OC(C)(C)C)NC(=O)[C@H](CCC(=O)OC(C)(C)C)NC(=O)OCc1ccccc1)C(=O)N(C)C,119 to 122,,,
"CC(C)(C)OC(=O)CC[C@H](NC(=O)OCc1ccccc1)C(=O)N[C@@H](CCCCNC(=O)OC(C)(C)C)C(O)C(=O)Nc1ccccc1 (single isomer, unassigned)",146 to 147,,,
CN(C)C(=O)[C@H](CC(N)=O)NC(=O)C(=O)[C@H](CCCCNC(=O)OC(C)(C)C)NC(=O)[C@H](CCC(=O)OC(C)(C)C)NC(=O)OCc1ccccc1,122 to 124,,,
CN(C)NC(=O)CC[C@H](NC(=O)OCc1ccccc1)C(=O)N[C@@H](CCCCN)C(=O)C(=O)NCc1ccccc1.Cl.Cl [Example 48],,4.1,100.0,98.2

Compound,melting point [°C],Enzyme inhibitory activity (%) RGP (Arg-gingipain (RGP)) [%],Enzyme inhibitory activity (%) KGP (Lys-gingipain (KGP); [1]) [%],Enzyme inhibitory activity (%) KGP (Lys-gingipain (KGP); [2]) [%]
CN(C)C(=O)CC[C@H](NC(=O)OCc1ccccc1)C(=O)N[C@@H](CCCCN)C(=O)C(=O)NCc1ccccc1.Cl [Example 45],,0.0,100.0,93.7
CC(C)(C)OC(=O)NCCCC[C@H](NC(=O)[C@H](CCC(=O)NCCNC(=O)OC(C)(C)C)NC(=O)OCc1ccccc1)C(=O)C(=O)NCc1ccccc1,157 to 159,,,
CN(NC(=O)CC[C@H](NC(=O)OCc1ccccc1)C(=O)N[C@@H](CCCCNC(=O)OC(C)(C)C)C(=O)C(=O)NCc1ccccc1)c1ccccc1,147 to 150,,,
CN(C)C(=O)[C@H](CCCCNC(=O)OC(C)(C)C)NC(=O)C(=O)[C@H](CCCCNC(=O)OC(C)(C)C)NC(=O)[C@H](CCC(=O)OC(C)(C)C)NC(=O)OCc1ccccc1,152 to 155,,,
CC(C)(C)OC(=O)NCCCC[C@H](NC(=O)[C@H](CCC(N)=O)NC(=O)OCc1ccccc1)C(=O)C(=O)NCc1ccccc1,193 to 195,,,
COC(=O)C(O)[C@H](CCCCNC(=O)OC(C)(C)C)NC(=O)[C@H](CCC(=O)OC(C)(C)C)NC(=O)OCc1ccccc1 (stereo partly drawn),101 to 103,,,
CN(NC(=O)CC[C@H](NC(=O)OCc1ccccc1)C(=O)N[C@@H](CCCCNC(=O)OC(C)(C)C)C(O)C(=O)NCc1ccccc1)c1ccccc1 (stereo partly drawn),170 to 173,,,
CN(C)C(=O)[C@H](CC(N)=O)NC(=O)C(O)[C@H](CCCCNC(=O)OC(C)(C)C)NC(=O)[C@H](CCC(=O)OC(C)(C)C)NC(=O)OCc1ccccc1 (stereo partly drawn),88 to 91,,,
CN(C)C(=O)[C@H](Cc1ccccc1)NC(=O)C(=O)[C@H](CCCCNC(=O)OC(C)(C)C)NC(=O)[C@H](CCC(=O)OC(C)(C)C)NC(=O)OCc1ccccc1,102 to 104,,,
CN(C)C(=O)[C@H](Cc1ccccc1)NC(=O)C(=O)[C@H](CCCCN)NC(=O)[C@H](CCC(=O)O)NC(=O)OCc1ccccc1.Cl [Example 34],,5.7,99.7,40.6
CNC(=O)CC[C@H](NC(=O)OCc1ccccc1)C(=O)N[C@@H](CCCCNC(=O)OC(C)(C)C)C(O)C(=O)NCc1ccccc1 (stereo partly drawn),147 to 149,,,
"CN(C)C(=O)[C@H](Cc1ccccc1)NC(=O)C(O)[C@H](CCCCNC(=O)OC(C)(C)C)NC(=O)[C@H](CCC(=O)OC(C)(C)C)NC(=O)OCc1ccccc1 (single isomer, unassigned)",132 to 134,,,
CC(C)(C)OC(=O)CC[C@H](NC(=O)OCc1ccccc1)C(=O)N[C@@H](CCCCNC(=O)OC(C)(C)C)C(O)C(=O)O (stereo partly drawn),48 to 50,,,
CN(C)C(=O)[C@H](CCC(=O)OC(C)(C)C)NC(=O)C(=O)[C@H](CCCCNC(=O)OC(C)(C)C)NC(=O)[C@H](CCC(=O)OC(C)(C)C)NC(=O)OCc1ccccc1,127 to 130,,,
CN(C)C(=O)[C@H](CCC(=O)O)NC(=O)C(=O)[C@H](CCCCN)NC(=O)[C@H](CCC(=O)O)NC(=O)OCc1ccccc1.Cl [Example 36],,0.0,98.6,38.4
Cl.NCCCC[C@H](NC(=O)[C@H](CCC(N)=O)NC(=O)OCc1ccccc1)C(=O)C(=O)NCc1ccccc1 [Example 43],,9.0,100.0,93.8
Cl.NCCCC[C@H](NC(=O)[C@H](CCC(=O)O)NC(=O)OCc1ccccc1)C(=O)C(=O)Nc1ccccc1 [Example 40],,0.0,99.6,71.3
Cl.NCCCC[C@H](NC(=O)[C@H](CCC(=O)O)NC(=O)OCc1ccccc1)C(=O)C(=O)NCCc1ccccc1 [Example 42],,7.7,98.0,67.0
CNC(=O)CC[C@H](NC(=O)OCc1ccccc1)C(=O)N[C@@H](CCCCNC(=O)OC(C)(C)C)C(=O)C(=O)NCc1ccccc1,189 to 192,,,
